Laboratory results taken from US7053194B2, “Compositions and methods for p53-mediated repression of gene expression” (Fox Chase Cancer Center, priority 1999, dated 2006).

What was measured:
[1] = tested on: Saos2 (p53-null) and U20S (wt p53); assay: Western analysis of survivin after doxorubicin in osteosarcoma lines; format: cell-based, human; conditions: Saos2 (p53-null) versus U20S (wt p53), doxorubicin treatment
Method: (§1) MCF-7 cells were maintained in RPMI-1640 supplemented with 10% fetal bovine serum and 100 units/ml of penicillin and streptomycin. The human melanoma cell line CaCl, and the derivative clone expressing the HPV E6 gene, were cultured as described (Ahn et al., Oncogene). The human osteosarcoma cell lines Saos-2 and U2-OS (kindly provided by Peter Adams, Fox Chase Cancer Center), the murine p21 knock-out fibroblasts (kindly provided by James Sherley, MIT) and the human lung adenocarcinoma cell line H1299 were cultured in DMEM supplemented with 10% fetal bovine serum and 100 units/ml of penicillin and streptomycin. […] For treatment with ultra-violet light, cells were irradiated with 0–10 J/m2 (as noted) of UV-C with a Spectroline X series ultraviolet lamp, and output was monitored with a traceable UV light meter (Fisher Scientific). For drug treatment, cells were treated with 0.5ug/ml adriamycin (doxorubicin, Sigma), or dilution vehicle alone, for twenty-four hours. p53 induction was monitored by western analysis of 100 ug protein as described (Murphy et al., Genes & Devel. 10:2971–2980, 1996), using 0.1ug/ml DO-1 (Ab-6, Calbiochem) or 421 (Ab-1, Calbiochem.
(§2) Western analysis was performed essentially as described (Murphy et al., 1999). […] Protein concentrations were determined using the Bio-Rad Dc Protein Assay (Bio-Rad). […]

CaCl and CaCl/E6 = assay: Western analysis of survivin after doxorubicin in melanoma line with or without HPV E6; format: cell-based, human; conditions: CaCl versus CaCl/E6, doxorubicin treatment
Method: as §1, §2

[2] = tested on: human breast carcinoma cells (MCF7); assay: Northern analysis of survivin mRNA after doxorubicin; format: cell-based; conditions: MCF7, 0.5 ug/mL doxorubicin, as early as twelve hours
Method: MCF-7 cells were maintained in RPMI-1640 supplemented with 10% fetal bovine serum and 100 units/ml of penicillin and streptomycin. The human melanoma cell line CaCl, and the derivative clone expressing the HPV E6 gene, were cultured as described (Ahn et al., Oncogene). The human osteosarcoma cell lines Saos-2 and U2-OS (kindly provided by Peter Adams, Fox Chase Cancer Center), the murine p21 knock-out fibroblasts (kindly provided by James Sherley, MIT) and the human lung adenocarcinoma cell line H1299 were cultured in DMEM supplemented with 10% fetal bovine serum and 100 units/ml of penicillin and streptomycin. Murine Va15 cells, containing the temperature-sensitive Valine 135 allele of p53, were maintained as described (Wu, et al., Genes & Devel. 7:1126–1132, 1993). All cells were grown at 37° C. […] For treatment with ultra-violet light, cells were irradiated with 0–10 J/m2 (as noted) of UV-C with a Spectroline X series ultraviolet lamp, and output was monitored with a traceable UV light meter (Fisher Scientific). […]
The full-length coding region for survivin was generated by reverse transcription-polymerase chain reaction (RT-PCR) using 5 ug of total RNA from the H1299 human lung adenocarcinoma cell line, using the Access RT-PCR kit (Promega) and the following oligonucleotides: forward 5′ […] […] Autoradiographs were quantitated using NIH image software. […]

**Q.** For `COc1cccc2c1C(=O)c1c(O)c3c(c(O)c1C2=O)C[C@@](O)(C(=O)CO)C[C@@H]3O[C@H]1C[C@H](N)[C@H](O)[C@H](C)O1` [adriamycin, doxorubicin], which survivin protein levels [1] is on record?
**A.** Its survivin protein levels is “decreased survivin protein levels only in cells with wt p53 (U20S)”.

**Q.** What about the survivin protein levels (CaCl and CaCl/E6) of the same molecule?
**A.** Its survivin protein levels is “down-regulation of survivin protein levels only in parental CaCl cells”.

**Q.** And the “mRNA levels for survivin” value [2]?
**A.** Its value is “marked decreases in mRNA levels for survivin”.
